In ChEMBL document CHEMBL1201862, “PubChem BioAssay data set” (2004):
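Results reflect a 48-hour exposure of cells in 96-well plates to compound at five concentrations. GI50: concentration for 50% inhibition of growth.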 Activity calls are given as the source filed them. No stated cut-off is given here; in the data, active = GI50 up to about 1.1 µM and inactive = higher.

Columns and labels:
Experiment in all cases: growth of human tumour cells (NCI), 48 h
SNB-75 = system: SNB-75
HCT-116 = system: HCT-116
COLO 205 = system: COLO 205
KM12 = system: KM12
EKVX = system: EKVX
HCT-15 = system: HCT-15
HOP-92 = system: HOP-92
T47D = system: T47D
SK-OV-3 = system: SK-OV-3
NCI/ADR-RES = system: NCI/ADR-RES
SF-295 = system: SF-295
HCC 2998 = system: HCC 2998
SK-MEL-28 = system: SK-MEL-28
SK-MEL-5 = system: SK-MEL-5
BT-549 = system: BT-549
IGROV-1 = system: IGROV-1
OVCAR-8 = system: OVCAR-8
786-0 = system: 786-0
NCI-H23 = system: NCI-H23
HOP-62 = system: HOP-62

| Structure (SMILES) | GI50 (SNB-75) | GI50 (HCT-116) | GI50 (COLO 205) | GI50 (KM12) | GI50 (EKVX) | GI50 (HCT-15) [µM] | GI50 (HOP-92) | GI50 (T47D) | GI50 (SK-OV-3) | GI50 (NCI/ADR-RES) | GI50 (SF-295) | GI50 (HCC 2998) | GI50 (SK-MEL-28) | GI50 (SK-MEL-5) | GI50 (BT-549) | GI50 (IGROV-1) | GI50 (OVCAR-8) | GI50 (786-0) | GI50 (NCI-H23) | GI50 (HOP-62) |
| --- | --- | --- | --- | --- | --- | --- | --- | --- | --- | --- | --- | --- | --- | --- | --- | --- | --- | --- | --- | --- |
| Brc1ccc2[nH]cc(-c3csc(-c4ccccn4)n3)c2c1 | 16.9 µM (inactive) | 15.1 µM (inactive) | 13.4 µM (inactive) | 9.16 µM (inactive) | 9.44 µM (inactive) | 16.9 | 20.8 µM (inactive) | 10.7 µM (inactive) | 33 µM (inactive) | > 100 µM (inactive) | 6.68 µM (inactive) | 8.75 µM (inactive) | 53.1 µM (inactive) | 16.4 µM (inactive) | > 89.3 µM (inactive) | 23 µM (inactive) | 26.9 µM (inactive) | 7.93 µM (inactive) | 47.4 µM (inactive) | 15.8 µM (inactive) |
| CC(C)(C)c1cc2c(O)c(c1)COCc1cc(C(C)(C)C)cc(c1O)COCc1cc(C(C)(C)C)cc(c1O)COC2 | 9.35 µM (inactive) | 97.3 µM (inactive) | > 100 µM (inactive) | 64.6 µM (inactive) | > 100 µM (inactive) | > 100 | > 100 µM (inactive) | > 100 µM (inactive) | > 100 µM (inactive) | > 100 µM (inactive) | > 100 µM (inactive) | > 100 µM (inactive) | > 100 µM (inactive) | 99.3 µM (inactive) | > 100 µM (inactive) | > 100 µM (inactive) | > 100 µM (inactive) | 19.1 µM (inactive) | 46.1 µM (inactive) | > 100 µM (inactive) |
| COc1c(C(=O)O)cccc1-c1cccc(C(=O)NCCN(CCNC(=O)c2cccc(-c3cccc(C(=O)O)c3OC)c2OC)CCNC(=O)c2cccc(-c3cccc(C(=O)O)c3OC)c2OC)c1OC | 25.9 µM (inactive) | 33.4 µM (inactive) | 20.2 µM (inactive) | 18.6 µM (inactive) | 64.6 µM (inactive) | 65.2 | 67.1 µM (inactive) | 43 µM (inactive) | 33 µM (inactive) | > 100 µM (inactive) | 40.5 µM (inactive) | 31.7 µM (inactive) | 52.5 µM (inactive) | 4.84 µM (inactive) | 52.1 µM (inactive) | 39.8 µM (inactive) | 63 µM (inactive) | 31.6 µM (inactive) | 64.7 µM (inactive) | 58.9 µM (inactive) |
| O=C(/C=C/c1csc(-c2ccccc2)n1)NCc1ccc(C(=O)NCCc2ccccc2)cc1 | 2.6 µM (inactive) | 26.9 µM (inactive) | 42.1 µM (inactive) | 61.1 µM (inactive) | 93.5 µM (inactive) | 93.5 | 6.85 µM (inactive) | 41.2 µM (inactive) | 12.3 µM (inactive) | 11.6 µM (inactive) | 9.73 µM (inactive) | > 100 µM (inactive) | 24 µM (inactive) | 69.5 µM (inactive) | 22.3 µM (inactive) | 36.6 µM (inactive) | 4.23 µM (inactive) | 8.63 µM (inactive) | 29.7 µM (inactive) | 2.64 µM (inactive) |
| O=C(Cn1c2ccc(Br)cc2c2nc3ccccc3nc21)NNC(=S)NC1CCCCC1 | 13.8 µM (inactive) | 13.9 µM (inactive) | 13.2 µM (inactive) | 18.7 µM (inactive) | 18.6 µM (inactive) | 12 | 11.8 µM (inactive) | 17.3 µM (inactive) | 21.7 µM (inactive) | 17.3 µM (inactive) | 13.1 µM (inactive) | 17.6 µM (inactive) | 14.7 µM (inactive) | 14.2 µM (inactive) | 19.9 µM (inactive) | 10.7 µM (inactive) | 14.7 µM (inactive) | 15.5 µM (inactive) | 14.4 µM (inactive) | 13.6 µM (inactive) |
